Measurements taken from patent US8030518B2, “1,4 diamino bicyclic retigabine analogues as potassium channel modulators” (Valeant Pharmaceuticals International, priority 2006, dated 2011).

What was measured:
KCNQ2/3 heteromultimers = molecular target: T1, KCNQ2/3 heteromultimers (Rattus norvegicus, UniProt O88943+O88944); test: cell-based Rb+ efflux assay in PC-12 cells; details: Rb+ efflux cellular assay
T1 construct: endogenous in cells; host or cells: PC-12 cells differentiated with NGF-7s; no transfection described
Protocol: Compounds of this invention formula were evaluated for activity toward potassium channels in a cell-based Rb^+ efflux assay. This cellular bioassay is believed to faithfully represent the M channel activities identified with KCNQ2/3 heteromultimers. […] Additionally, antiseizure activity in vivo was evaluated in a mouse maximal electroshock seizure (MES) model, and neurotoxicities were determined from a rotorod neurocognitive motor impairment model and open field observation.
PC-12 cells were grown at 37° C. and 5% CO2 in DMEM/F12 Medium (Dulbecco's Modified Eagle Medium with Nutrient Mix F-12, available from Invitrogen of Carlsbad, Calif.), supplemented with 10% horse serum, 5% fetal bovine serum, 2 mM glutamine, 100 U/ml penicillin, and 100 U/ml streptomycin. They were plated in poly-D-lysine-coated 96-well cell culture microplates at a density of 40,000 cells/well and differentiated with 100 ng/ml NGF-7s for 2-5 days. For the assay, the medium was aspirated, and the cells were washed once with 0.2 ml wash buffer (25 mM HEPES, pH 7.4, 150 mM NaCl, 1 mM MgCl2, 0.8 mM NaH2PO4, 2 mM CaCl2). The cells were then loaded with 0.2 ml Rb^+ loading buffer (wash buffer plus 5.4 mM […], 5 mM glucose) and incubated at 37° C. for 2 h. Attached cells were washed quickly three times with buffer (same as Rb^+ loading buffer, but containing 5.4 mM KCl instead of RbCl) to remove extracellular Rb^+. Immediately following the wash, 0.2 ml of depolarization buffer (wash buffer plus 15 mM KCl solution) with or without compounds was added to the cells to activate efflux of potassium ion channels. After incubation for 10 min at room temperature, the supernatant was carefully removed and collected. Cells were lysed by the addition of 0.2 ml of lysis buffer (depolarization buffer plus 0.1% Triton X-100) and the cell lysates were also collected. If collected samples were not immediately analyzed for Rb^+ contents by atomic absorption spectroscopy (see below), they were stored at 4° C. without any negative effects on subsequent Rb^+ analysis.
The concentrations of Rb^+ in the supernatants (Rb^+Sup) and the cell lysates (Rb^+Lys) were quantified using an ICR8000 flame atomic absorption spectrometer (Aurora Biomed Inc., Vancouver, B.C.) under conditions defined by the manufacturer. Samples 0.05 ml in volume were processed automatically from microtiter plates by dilution with an equal volume of Rb^+ sample analysis buffer and injection into an air-acetylene flame. The amount of Rb^+ in the sample was measured by absorption at 780 nm using a hollow cathode lamp as light source and a PMT detector. A calibration curve covering the range 0-5 mg/L Rb^+ in sample analysis buffer was generated with each set of plates. The percent Rb^+ efflux (F) was defined by F=[Rb^+Sup/(Rb^+Sup+Rb^+Lys)]×100%. […] The efflux (F) and compound concentration relationship was plotted to calculate an EC50 value, a compound's concentration for 50% of maximal Rb^+ efflux. Seizure Model Tests

[1] = tested on: maximal electroshock seizure; test: mouse maximal electroshock seizure (MES) test; assay type: in vivo; set-up: key: A: active; B: inactive; details: ip dosing of 12.5 mg/kg
Excerpt: The MES testing protocol is based on procedures established at the National Institute of Neurological Disorders and Stroke in conjunction with the Anticonvulsant Screening Program (ASP) at the University of Utah (White, H. S., Woodhead, J. H., Wilcox, K. S., Stables, J. P., Kupferberg, H. J and Wolf, H. H. 2002. “General Principles: Discovery and Preclinical Development of Antiepileptic Drugs,” in Antiepileptic Drugs, 5th Edition, R. H. Levy, ed.; R. H. Mattson, B. S. Meldrum, and E. Perucca. Philadelphia, Lippincott Williams & Wilkins.), The goal of the test is to rapid identify and characterize the in vivo anticonvulsant activity of any compounds that have been shown active in PC-12 cellular based Rb^+ efflux assay.
Adult male CF-1 albino mice (18-25 g, Charles River Laboratories) are […] used for MES screening of compounds. Male Sprague-Dawley albino rats (100-125 g, Charles River Laboratories) are also used to test anticonvulsant compounds. Animals are permitted to rest and recover from transit for at least 48 hr prior to experimentation. Animals are used for AED testing only once. In some instances, the animals can be anesthetized prior to blood collection or whole brain extraction for pharmacokinetic assay. All animals are maintained and handled as outlined in standard animal care guidelines.
In the experiments, testing compounds are prepared as suspensions in 0.5% methyl cellulose (Sigma, Cat # M0512, Viscosity 4000 cP at 20° C.) in water, regardless of solubility. Dry powder compounds are initially ground with a glass rod in a test tube in several drops of methyl cellulose to create a paste and to break down any large chunks. After several minutes of grinding, the volume of the suspension is increased to the final concentration desired. The suspension is then sonicated using a Branson sonicator model 3510 in a water bath at room temperature for 15 minutes. Compound suspensions are further vortexed prior to animal dosing. In some of the cases, DMSO is used to initially solubilize compounds in small volumes and then this solution is added to the 0.5% methyl cellulose solution, in order to create more even and less aggregated compound suspensions. The final concentration of DMSO is 3.75%, an amount with no apparent toxicity or neuroprotective effects in our usual rotarod and MES tests. Methyl cellulose/DMSO compound suspensions are identically prepared for intraperitoneally (i.p.)dosing to mice or orally (p.o.) dosing to rats.
Initially the animals are weighed with an electronic scale and then marked. Data recording sheets are generated for each compound assessment. Mice or rats are dosed with the compound suspension at 0.01 mL/g of body weight. The typical injection volume range is between 180-250 μl for mice. Compounds are dosed by i.p. to mice using a 25 or 22 gauge needle, depending on the viscosity of the suspension. Rats are p.o. dosed using a flexible feeding tube, typically starting at a compound dose of 5 mg/kg.
A Rodent Electroconvulsive Stimulator (Model 200, Hamit-Darvin-Freesh, Snow Canyon Clinic, Ivins, Utah) is used for MES testing. A 60-Hz alternating current (50 mA for mice; 150 mA for rats) is delivered for 0.2 seconds through corneal electrodes to the mice. A drop of 0.5% tetracaine (Sigma, Cat. # T-7508) solution is placed on the eye prior to current delivery. The electrodes are subsequently placed gently onto the eyes of the animal and the electrical shock is initiated by triggering through a foot-pedal activator. The animals are restrained by hand and gently released as the shock is delivered and the seizure commences. Animals are monitored for hind limb tonic extension as the end point for this test. Current delivery is recorded as a measure of overall seizure-induction potential. Electrical current delivery can vary from approximately 30-55 mA (mice) or 90-160 mA (rats) depending on impedance in the animal and quality of the current delivery (i.e. correct placement of the electrodes on the cornea). […]

SMILES	EC50 (KCNQ2/3 heteromultimers) [nM]	Mouse MES test [1]
Cc1c(Br)c2c(c(C)c1NC(=O)CC(C)(C)C)CCCC2Nc1ccc(C(F)(F)F)cc1 (centres unmarked)	> 500	–
Cc1cc2c(c(C)c1NC(=O)CC(C)(C)C)CCCC2Nc1ccc(F)cc1 (single isomer, unassigned; (+)) [Example 4, (+)N-(5-(4-fluorophenylamino)-1,3-dimethyl-5,6,7,8-tetrahydronaphthalen-2-yl)-3,3-dimethylbutanamide]	10 to 50	A
Cc1cc2c(c(C)c1NC(=O)CC(C)(C)C)CCC2Nc1ccc(F)cc1 (single isomer, unassigned; (+)) [Example 13, (+) N-(1-(4-fluorophenylamino)-4,6-dimethyl-2,3-dihydro-1H-inden-5-yl)-3,3-dimethylbutanamide]	1 to 10	A
Cc1cc2c(c(C)c1NC(=O)CC(C)(C)C)CCC2Nc1ccc(C(F)(F)F)cc1 (single isomer, unassigned; (+)) [Example 16, (+) N-(4,6-dimethyl-1-(4-(trifluoromethyl)phenylamino)-2,3-dihydro-1H-inden-5-yl)-3,3-dimethylbutanamide]	1 to 10	A
Cc1cc2c(c(C)c1NC(=O)CC(C)(C)C)CCCC2Nc1ccc(F)cc1 (single isomer, unassigned; (-)) [Example 3, (−)N-(5-(4-fluorophenylamino)-1,3-dimethyl-5,6,7,8-tetrahydronaphthalen-2-yl)-3,3-dimethylbutanamide]	1 to 10	A
Cc1cc2c(c(C)c1NC(=O)CC(C)(C)C)CCCC2Nc1ccc(F)cc1 (centres unmarked) [Example 2, N-(5-(4-fluorophenylamino)-1,3-dimethyl-5,6,7,8-tetrahydronaphthalen-2-yl)-3,3-dimethylbutanamide]	10 to 50	A
Cc1cc2c(c(C)c1NC(=O)CC(C)(C)C)CCCC2Nc1ccc(C(F)(F)F)cc1 (centres unmarked) [Example 5, N-(1,3-dimethyl-5-(4-(trifluoromethyl)phenylamino)-5,6,7,8-tetrahydronaphthalen-2-yl)-3,3-dimethylbutanamide]	1 to 10	A
Cc1cc2c(c(C)c1NC(=O)CC(C)(C)C)CCCC2Nc1ccc(Cl)c(Cl)c1 (centres unmarked) [Example 6, N-(1,3-dimethyl-5-(3,4-dichlorophenylamine)-5,6,7,8-tetrahydronaphthalen-2-yl)-3,3-dimethylbutanamide]	1 to 10	B
Cc1cc2c(c(C)c1NC(=O)CC(C)(C)C)CCCC2Nc1ccc(Cl)cc1 (centres unmarked) [Example 7, N-(1,3-dimethyl-5-(4-chlorophenylamino)-5,6,7,8-tetrahydronaphthalen-2-yl)-3,3-dimethylbutanamide]	1 to 10	A
Cc1cc2c(c(C)c1NC(=O)CC(C)(C)C)CCCC2Nc1ccc(Br)cc1 (centres unmarked) [Example 8, N-(1,3-dimethyl-5-(4-bromophenylamino)-5,6,7,8-tetrahydronaphthalen-2-yl)-3,3-dimethylbutanamide]	1 to 10	–
Cc1cc2c(c(C)c1NC(=O)CC(C)(C)C)CCCC2Nc1cccc(Cl)c1 (centres unmarked) [Example 9, N-(1,3-dimethyl-5-(3-chlorophenylamino)-5,6,7,8-tetrahydronaphthalen-2-yl)-3,3-dimethylbutanamide]	1 to 10	A
Cc1cc2c(c(C)c1NC(=O)CC(C)(C)C)CCCC2Nc1cc(F)cc(F)c1 (centres unmarked) [Example 10, N-(1,3-dimethyl-5-(3,5-difluorophenylamino)-5,6,7,8-tetrahydronaphthalen-2-yl)-3,3-dimethylbutanamide]	1 to 10	A
Cc1cc2c(c(C)c1NC(=O)CC(C)(C)C)CCC2Nc1ccc(Cl)cc1 (centres unmarked) [Example 17, N-(4,6-dimethyl-1-(4-chlorophenylamino)-2,3-dihydro-1H-inden-5-yl)-3,3-dimethylbutanamide]	≤ 1	A
Cc1cc2c(c(C)c1NC(=O)CC(C)(C)C)CCC2Nc1ccc(Br)cc1 (centres unmarked) [Example 18, N-(4,6-dimethyl-1-(4-bromophenylamino)-2,3-dihydro-1H-inden-5-yl)-3,3-dimethylbutanamide]	≤ 1	A
Cc1cc2c(c(C)c1NC(=O)CC(C)(C)C)CCC2Nc1cccc(Cl)c1 (centres unmarked) [Example 19, N-(4,6-dimethyl-1-(3-chlorophenylamino)-2,3-dihydro-1H-inden-5-yl)-3,3-dimethylbutanamide]	1 to 10	A
Cc1cc2c(c(C)c1NC(=O)CC(C)(C)C)CCC2Nc1ccc(Cl)c(Cl)c1 (centres unmarked) [Example 20, N-(4,6-dimethyl-1-(3,4-dichlorophenylamine)-2,3-dihydro-1H-inden-5-yl)-3,3-dimethylbutanamide]	≤ 1	A
Cc1cc2c(c(C)c1NC(=O)CC(C)(C)C)CCC2Nc1ccc(F)c(F)c1 (centres unmarked) [Example 21, N-(4,6-dimethyl-1-(3,4-difluorophenylamino)-2,3-dihydro-1H-inden-5-yl)-3,3-dimethylbutanamide]	1 to 10	A
Cc1cc2c(c(C)c1NC(=O)CC(C)(C)C)CCC2Nc1cc(F)cc(F)c1 (centres unmarked) [Example 22, N-(4,6-dimethyl-1-(3,5-difluorophenylamino)-2,3-dihydro-1H-inden-5-yl)-3,3-dimethylbutanamide]	1 to 10	A
CCOC(=O)Nc1ccc2c(c1)CCC2Nc1ccc(F)cc1 (centres unmarked) [Example 25, Ethyl 1-(4-fluorophenylamino)-2,3-dihydro-1H-inden-5-yl-carbamate]	> 500	–
